How the values were obtained:
[1] = system: human T-cells; test: Suppression of Human T-Cell Proliferation Assay (mitogen-induced, [3H]-thymidine incorporation); type: cell-based; conditions: Homo sapiens, T-cell; 72 hours incubation; mitogen stimulated; read-out: IC50 (inhibition of [3H]-thymidine incorporation of T-cells by 50%)
Source text: 2) Human T Lymphocyte Inhibition
Inhibition of mitogen-induced T-cell proliferation can be used to profile immunosuppressive activity of test compounds. In the description of the assay which follows, mitogen-induced T-cell proliferation was used to test the inhibitory potencies of select compounds of the present invention.
In an assay similar to that described by Bradley in Mishell et al. (Eds.), 1980, Selected Methods in Cellular Immunology, pp 156-161, W. H. Freeman & Co., San Fransisco, Calif., T-cells were stimulated by incubation with phytohemagglutinin (PPIA) which binds to cell surface molecules, including the T-cell receptor. This stimulation results in proliferation which can be measured by incorporation of [^3 H]-thymidine into cellular DNA.
The immunosuppressive properties of the compounds of the present invention can be determined by adding various concentrations of the compounds to these cultures and measuring the effect on T-cell proliferation.
Suppression of Human T-Cell Proliferation Assay
Fresh LeukoPaks were obtained from the New York Blood Center, New York, N.Y. The cells, including erythrocytes and leukocytes, were diluted with Hank's Balanced Salt Solution (HBSS) (GIBCO, Grand Island, N.Y.) and layered over Lymphoprep (Nycomed Pharma AS, Oslo, Norway) in sterile 50 ml conical centrifuge tubes. Lymphocytes were isolated at the Hank's/Nycomed interface after centrifugation at 2000×g, 4° C. for 15 min. The lymphocytes were washed with Minimal Essential Medium (GIBCO) containing 2% fetal bovine serum (FBS) (Sigma Chemical Co., St. Louis, Mo.), 1% HEPES buffer (GIBCO) and 1% Penicillin-Stretomycin solution (GIBCO).
T-cells were further purified essentially by sheep erythrocyte (SRBC) rosetting as described by Morimoto et al., 1983, J. Immunol. 130:157. The isolated lymphocytes were adjusted to 2×10^7 cells/ml and 5 ml aliquots of the cell suspension were incubated for 10 minutes at room temperature with 5 ml of a 5% SRBC (Cappel, Organon Technika Corp., West Chester, Pa.) suspension. The cells were gently pelleted by centrifugation at 300 rpm for 10 minutes, followed by a 1 hour incubation at room temperature to allow rosette formation. The cells were gently resuspended,layered over Lymphoprep and centrifuged for 30 minutes at 500×g. The pellet, containing rosetted T-cells and SRBC was treated with ice cold buffered ammonium chloride (GIBCO) to lyse the erythrocytes. T-cells were washed twice with HBSS.
Purified T-cells were resuspended at 2×10^6 cells/ml in complete culture medium composed of RPMI-1640 (Whittaker Bioproducts, Walkerville, Md.) with 10% FBS (Sigma), 2 mM L-glutamine (GIBCO), 1% Penicillin-Streptomycin (GIBCO) and 15 mM HEPES (GIBCO). In 96-well plates (Becton Dickinson, Lincoln Park, N.J.), 0.1 ml aliquots of T-cell suspension were mixed with 0.05 ml of 40 μg/ml PPIA-M (Sigma). The compounds of this invention were dissolved in dimethylsulfoxide at 10 mM and various dilutions in complete medium were added in duplicate wells (0.05 ml/well). The plates were incubated at 37° C. in a humidified atmosphere of 5% carbon dioxide and 95% air for 72 hours.
Proliferation was assessed by measurement of [3H]-thymidine incorporation. During the last 6 hours of incubation, the cells were pulse labelled with 1 μCi/well of [3H]-thymidine (New England Nuclear, Boston, Mass.). The cells were harvested onto glass fiber paper using a plate harvester and the radioactivity incorporated into cellular DNA corresponding to individual wells was measured by standard liquid scintillation counting methods. The mean counts per minute (CPM) of replicate wells was calculated and linear regression analysis of mean CPM versus compound concentration was used to determine the concentration of compound which would inhibit [^3 H]-thymidine incorporation of T-cells by 50% (IC50).

[2] = target: FKBP (Homo sapiens, UniProt P62942); test: PPIase Inhibition Assay; type: biochemical
Sequence of FKBP (P62942 whole entry): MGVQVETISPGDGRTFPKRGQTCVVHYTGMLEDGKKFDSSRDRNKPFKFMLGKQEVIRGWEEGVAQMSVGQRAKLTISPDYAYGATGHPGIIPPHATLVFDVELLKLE
Protocol: 1) Inhibition of PPlase Activity
This assay follows in principle the procedure described in Kofron et al., 1991, Biochemistry 30:6127. The three main reagents used are PPIase, a substrate for PPIase, and a selected inhibitor compound of the present invention. The basic principle behind this assay is the conversion of the cis isomer of the substrate to the trans form, which conversion is catalyzed by PPIase. Essentially, inhibition of this PPIase activity is measured for the selected compounds. A peptide chymotrypsin substrate containing a proline in the P2 position is only cleaved by chymotrypsin when the Phe-Pro bond is in the trans isomeric configuration. In the presence of excess chymotrypsin, all of the trans peptide isomers are cleaved within approximately five seconds, leaving only cis forms.
The cis peptide will spontaneously convert to the trans isomer at a slow rate. The cis to trans conversion is catalyzed by isomerases at a much faster rate than this spontaneous conversion. Proteins with PPIase activity are examples of such isomerases. After isomerization, the peptide is cleaved by chymotrypsin releasing p-nitroaniline which can be monitored at 390 nm. The rate of release is then calculated using a first order rate plus offset equation utilizing the ENZFITTER program (Leatherbarrow, BIOSOFT, Cambridge, United Kingdom).
In a plastic cuvette are added 950 ul of ice cold assay buffer (25 mM HEPES, pH 7.8, 100 mM NaCl), 10 uL of FKBP (2.5 uM in 10 mM Tris-Cl pH 7.5,100 mM NACl, 1 mM dithiothreitol), 25 ul of chymotrypsin (50 mg/ml in 1 mM HCl) and 10 ul of the test compound at various concentrations in dimethyl sulphoxide. The reaction is initiated by addition of 5 ul of substrate (Succinyl-Ala-Phe-Pro-Phe-para-nitroanilide, 5 mg/ml in 235 mM LiCl in trifluoroethanol).
The absorbance at 390 nm versus time is monitored for 90 sec using a Beckman DU70 spectrophotometer. The absorbance versus time data files are transferred to an IBM XT computer and the rate constants determined using the commercial Enzfitter program. For each set of data, the uncatalyzed rate of conversion is measured and the uninhibited enzymatic rate determined. The data are expressed as % Inhibition and are calculated as follows: [formula] where kobs is the rate in the presence of a selected test compound, kuncat is the rate in the absence of enzyme, and kuninh is the rate in the presence of enzyme and absence of inhibitor. Data are plotted as percent inhibition versus concentration of inhibitor. The values of the concentration of inhibitor required for 50% inhibition of enzyme activity (IC50) were determined by nonlinear least squares regression analysis.

[3] = system: IL-2 production; conditions: cited from earlier work
[4] = system: baboons; conditions: Collier et al., 1988; cited from earlier work
[5] = system: NF-AT; conditions: Schreiber and Crabtree, 1992; cited from earlier work
[6] = system: FK506 binding protein (FKBP); conditions: cited from earlier work
[7] = system: transplant patients; conditions: cited from earlier work
[8] = system: dogs; conditions: Collier et al., 1988; cited from earlier work

For `CC(C)C[C@@H](CN1CCC[C@H]1C(=O)NCCCCc1ccccc1)NS(=O)(=O)CS(C)(=O)=O` [Example 9, 1-[2-(S)-(Methylsulfonylmethanesulfonylamino)-4-methylpentyl]-L-proline 4-Phenylbutylamide], the IC50 [1] was 4 µM and the IC50 [2] was over 5 µM.

For `C=CC[C@@H]1/C=C(\C)C[C@H](C)C[C@H](OC)[C@H]2O[C@@](O)(C(=O)C(=O)N3CCCC[C@H]3C(=O)O[C@H](/C(C)=C/[C@@H]3CC[C@@H](O)[C@H](OC)C3)[C@H](C)[C@@H](O)CC1=O)[C@H](C)C[C@@H]2OC` [FK506], the “IL-2 production (in words)” value [3] is listed as “inhibit IL-2 production”, the vasculitis [4] is listed as “severe vasculitis” and the “NF-AT activity (in words)” value [5] is listed as “inhibited”. For the same compound, the “binding to FKBP (in words)” value [6] was “bound”, the “effectiveness in transplant patients who do not respond to CsA” value ([7]; Tucci et al., 1989) was “effective in some transplant patients who do not respond to CsA” and the “absolute rate of clinical rejection vs current standard therapies” value ([7]; post-organ transplantation patients, Holechek, 1991) was “only slightly lower than with current standard therapies”. For the same compound, the vasculitis [8] was “severe vasculitis”.

From patent US5633277A, “Sulfonamide aminomethylene derivatives as immunosuppressants” (Miles Inc., priority 1995, dated 1997)
